Source: patent EP4737451A1 (Dong Wha Pharm. Co., Ltd., priority 2023, dated 2025)

Experiments:
[1] = target: T1, IRAK1 enzyme (Homo sapiens, UniProt P51617); test: IRAK1 enzyme activity inhibition (ADP-Glo, Promega kit); type: biochemical; details: for inhibition at 0.1 µM: test compound 0.1 uM; for inhibition at 1 µM: test compound 1 uM
T1 construct: purchased Promega VA7477
Experimental: An experiment on IRAK1 enzyme activity inhibition of the compound of the present invention was conducted.
An IRAK1 enzyme kit (purchased from Promega, product number: VA7477) was used to dilute a mixed solution between 0.1 µg/µL of protein kinase B (AKT), which is an enzyme-reactive substrate, and 1.25 mM of ATP with a reaction buffer (40 mM Tris-HCl, pH 7.5; 20 mM MgCl2; 0.1 mg/mL BSA; 50 µM DTT) according to the instructions, so as to dispense 2 µL in a 384-well white plate, and then to add 1 µL of a test compound, which was gradient diluted starting from 1 mM, to a 384-well white plate. After that, an IRAK1 enzyme was diluted with a reaction buffer to a final concentration of 5 ng/µL, then 2 µL/well was dispensed into a 384-well white plate and reacted at 37°C for 60 minutes. After completion of a reaction, an ADP-GloTM enzyme test kit (purchased from Promega, product number: V9102) was used to add 5 µL of ADP-Glo reaction reagent and cause a reaction at 37°C for 40 minutes, and then 10 µL of enzyme chromogenic reagent was added again to measure a luminescence signal using equipment for measuring absorbance (THECAN, Microplate Reader). An activity inhibition rate was calculated from a measured value, and a 50% inhibition concentration (IC50 value) was analyzed through a non-linear regression analysis based on the % inhibition for each concentration of the test compound, and is shown in Table 3.

[2] = tested on: hPBMC TNFα; test: Cell-based inflammatory cytokine secretion inhibition (LPS-stimulated PBMC, hTNF-α ELISA); details: human PBMC, LPS 1 µg/mL, hTNF-α by ELISA, mean; read-out: hPBMC TNFα IC50_mean
Experimental: An experiment on inflammatory cytokine secretion inhibition of the compound of the present invention was conducted.
PBMC (LONZA, peripheral blood mononuclear cells) isolated from human whole blood was dispensed into a 96-well plate at a density of 1.0 X 10^5 cells/well, and the cells were stabilized for 20 hours. After that, a test compound diluted at each of four concentrations was added to a Roswell Park Memorial Institute (RPMI) medium, reacted for one hour, treated with lipopolysaccharide (LPS) to reach a final concentration of 1 µg/mL, and further reacted for one hour. hTNF-α, which is an inflammatory cytokine, was measured by an enzyme linked immunosorbent assay using an ELISA kit from Goma Biotech. A cell supernatant, a standard drug, and an antibody were added to an ELISA-plate and reacted for four hours in total, after which the plate was washed, reacted with streptavidin-HRP for 30 minutes, and washed again. After that, a TMB substrate was added and reacted in a dark place, and when a color was sufficiently developed, a stop solution was added to stop the reaction. hTNF-α was measured by measuring absorbance at 450 nm using equipment for absorption measurement (Microplate Reader from BioTeK). An activity inhibition rate was calculated from a measured absorbance value, a % inhibition for each concentration of the test compound was calculated, a 50% inhibition concentration (IC50 value) was analyzed through a non-linear regression analysis, and the results are shown in Table 4.

[3] = target: T2, IRAK4 enzyme (Homo sapiens, UniProt Q9NWZ3); test: IRAK4 enzyme activity inhibition (ADP-Glo, Promega kit); type: biochemical; details: for inhibition at 0.1 µM: test compound 0.1 uM; for inhibition at 1 µM: test compound 1 uM
T2 construct: purchased Promega V2621
T2 sequence (Q9NWZ3 1-460): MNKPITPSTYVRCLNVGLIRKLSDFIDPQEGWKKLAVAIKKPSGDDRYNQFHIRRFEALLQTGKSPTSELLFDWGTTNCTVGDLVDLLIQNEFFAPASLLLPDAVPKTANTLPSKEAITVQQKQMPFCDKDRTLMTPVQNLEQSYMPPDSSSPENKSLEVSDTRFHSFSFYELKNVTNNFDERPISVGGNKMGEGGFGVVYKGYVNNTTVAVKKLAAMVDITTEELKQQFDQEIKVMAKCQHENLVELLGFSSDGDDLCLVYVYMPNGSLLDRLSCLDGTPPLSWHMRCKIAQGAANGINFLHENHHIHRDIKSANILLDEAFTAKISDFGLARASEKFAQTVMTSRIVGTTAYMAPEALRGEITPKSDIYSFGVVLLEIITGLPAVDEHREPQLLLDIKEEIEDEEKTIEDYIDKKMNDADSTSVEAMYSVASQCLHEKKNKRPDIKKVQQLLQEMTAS
Experimental: An experiment on IRAK4 enzyme activity inhibition of the compound of the present invention was conducted.
An IRAK4 enzyme kit (purchased from Promega, product number: V2621) was used to dilute a mixed solution between 0.1 µg/µL of myelin basic protein (MBP), which is an enzyme-reactive substrate, and 1.25 mM of ATP with a reaction buffer (40 mM Tris-HCl, pH 7.5; 20 mM MgCl2; 0.1 mg/mL BSA; 50 µM DTT) according to the instructions, so as to dispense 2 µL in a 384-well white plate, and then to add 1 µL of a test compound, which was gradient diluted starting from 1 mM, to a 384-well plate. After that, an IRAK4 enzyme was diluted with a reaction buffer to a final concentration of 5 ng/µL, then 2 µL/well was dispensed into a 384-well white plate and reacted at 37°C for 60 minutes. After completion of a reaction, an ADP-GloTM enzyme test kit (purchased from Promega, product number: V9102) was used to add 5 µL of ADP-Glo reaction reagent and cause a reaction at 37°C for 40 minutes, and then 10 µL of enzyme chromogenic reagent was added again to measure a luminescence signal using equipment for measuring absorbance (THECAN, Microplate Reader). An activity inhibition rate was calculated from a measured value, and a 50% inhibition concentration (IC50 value) was analyzed through a non-linear regression analysis based on the % inhibition for each concentration of the test compound, and is shown in Table 2.

T1 sequence (P51617 whole entry): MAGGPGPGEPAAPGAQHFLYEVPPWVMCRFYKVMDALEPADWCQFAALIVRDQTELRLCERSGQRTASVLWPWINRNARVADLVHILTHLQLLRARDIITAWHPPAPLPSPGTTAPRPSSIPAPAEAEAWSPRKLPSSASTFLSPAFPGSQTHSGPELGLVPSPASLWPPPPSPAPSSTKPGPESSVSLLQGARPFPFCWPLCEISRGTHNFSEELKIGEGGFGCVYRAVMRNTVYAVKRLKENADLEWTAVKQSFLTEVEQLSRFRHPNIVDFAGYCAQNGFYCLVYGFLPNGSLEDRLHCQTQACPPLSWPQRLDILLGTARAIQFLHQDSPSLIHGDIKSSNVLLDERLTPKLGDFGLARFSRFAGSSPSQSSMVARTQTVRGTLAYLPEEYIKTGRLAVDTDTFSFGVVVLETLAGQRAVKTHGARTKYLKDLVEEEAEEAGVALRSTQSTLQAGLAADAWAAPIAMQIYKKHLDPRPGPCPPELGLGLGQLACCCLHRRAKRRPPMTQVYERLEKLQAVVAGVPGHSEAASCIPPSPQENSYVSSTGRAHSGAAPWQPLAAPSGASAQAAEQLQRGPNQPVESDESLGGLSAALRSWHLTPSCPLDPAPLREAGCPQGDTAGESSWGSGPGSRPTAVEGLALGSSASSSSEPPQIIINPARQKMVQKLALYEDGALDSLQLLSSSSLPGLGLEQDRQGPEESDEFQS

| IC50 [1] | IC50 [2] | IC50 [3] | inhibition at 0.1 µM [3] | inhibition at 1 µM [3] | inhibition at 0.1 µM [1] | inhibition at 1 µM [1] | Structure (SMILES) |
| --- | --- | --- | --- | --- | --- | --- | --- |
|  | 0.0204 µM | 0.00088 µM | 93.3% |  | 54.2% |  | CC(C)(O)CCn1cc2cc(NC(=O)c3cccc(S(N)(=O)=O)c3)c(N3CCC(C(C)(C)O)CC3)cc2n1 [Example 29, N-(2-(3-hydroxy-3-methylbutyl)-6-(4-(2-hydroxypropan-2-yl)piperidin-1-yl)-2H-indazol-5-yl)-3-sulfamoylbenzamide] |
|  | 0.113 µM | 0.002 µM | 87.1% |  | 17.5% | 52% | CC(C)(O)CCn1cc2cc(NC(=O)c3cccc([N+](=O)[O-])c3)c(N3CCC(O)CC3)cc2n1 [Example 32, N-(2-(3-hydroxy-3-methylbutyl)-6-(4-hydroxypiperidin-1-yl)-2H-indazol-5-yl)-3-nitrobenzamide] |
|  |  | 0.0131 µM | 83.9% |  | 26.9% | 45.5% | CC(C)(O)CCn1cc2cc(NC(=O)c3cc(F)cc([N+](=O)[O-])c3)c(N3CCOCC3)cc2n1 [Example 24, 3-fluoro-N-(2-(3-hydroxy-3-methylbutyl)-6-morpholino-2H-indazol-5-yl)-5-nitrobenzamide] |
|  |  |  | 59.6% | 75% |  | 0% | CC(C)(O)Cn1cc2cc(NC(=O)c3cccc([N+](=O)[O-])c3)c(N3CCSCC3)cc2n1 [Example 45, N-(2-(2-hydroxy-2-methylpropyl)-6-thiomorpholino-2H-indazol-5-yl)-3-nitrobenzamide] |

Continued, molecule first:

| Structure (SMILES) | IC50 [1] | IC50 [2] | IC50 [3] | inhibition at 0.1 µM [3] | inhibition at 1 µM [3] | inhibition at 0.1 µM [1] | inhibition at 1 µM [1] |
| --- | --- | --- | --- | --- | --- | --- | --- |
| CC(C)(O)CCn1cc2cc(NC(=O)c3cccc([N+](=O)[O-])c3)c(N3CCOCC3)cc2n1 [Example 3, N-(2-(3-hydroxy-3-methylbutyl)-6-morpholino-2H-indazol-5-yl)-3-nitrobenzamide] | 2.6 µM | 0.0518 µM | 0.0002 µM | 81.7% | 94.4% |  |  |
| CC(C)(O)CCn1cc2cc(NC(=O)c3cccc(S(N)(=O)=O)c3)c(N3CCOCC3)cc2n1 [Example 15] |  | 0.575 µM | 0.0037 µM | 88.8% | 95.2% | 28.5% | 66.5% |
| CC(C)(O)CCn1cc2cc(NC(=O)c3cncc([N+](=O)[O-])c3)c(N3CCOCC3)cc2n1 [Example 2, N-(2-(3-hydroxy-3-methylbutyl)-6-morpholino-2H-indazol-5-yl)-5-nitronicotinamide] |  | 0.526 µM | 0.0567 µM | 72.7% | 86.5% | 32.1% |  |
| CC(C)(O)CCn1cc2cc(NC(=O)c3ccc(N)c([N+](=O)[O-])c3)c(N3CCOCC3)cc2n1 [Example 23, 4-amino-N-(2-(3-hydroxy-3-methylbutyl)-6-morpholino-2H-indazol-5-yl)-3-nitrobenzamide] |  | 0.601 µM | 0.0105 µM | 88% |  | 26% | 45.3% |
| CC(C)(O)CCn1cc2cc(NC(=O)c3cccc(-c4ccn[nH]4)n3)c(N3CCOCC3)cc2n1 [Example 21, N-(2-(3-hydroxy-3-methylbutyl)-6-morpholino-2H-indazol-5-yl)-6-(1H-pyrazol-5-yl)picolinamide] | 0.07 µM | 0.0119 µM | 0.0015 µM | 89.3% | 97.9% | 67.2% | 82.4% |
